Read-outs that look alike come from different tables or passages of the source.
Key:
[1] = system: AChE; settings: read-out: IC50-30min; Percophis brasiliensis, marine fish; cited from earlier work
[2] = system: brain AChE; format: biochemical; settings: Genidens genidens (catfish) brain AChE
Description: (§1) The residual enzyme activities [Er] were evaluated.

[3] = system: AChE; settings: read-out: IC50-30min; Prochilodus lineatus, freshwater fish; cited from earlier work
[4] = system: AChE; settings: read-out: IC50-30min; Genidens genidens, marine fish; cited from earlier work
[5] = system: brain AChE; format: biochemical, Lagocephalus laevigatus
Description: as §1

[6] = system: brain AChE; format: biochemical, Mugil liza; settings: for inhibition of AChE: mullet AChE, 1-5 min incubation
Description: as §1

[7] = molecular target: T1, brain AChE (Gallus gallus, UniProt P36196); settings: Gallus domesticus (hen) brain AChE
T1 sequence (P36196 20-767): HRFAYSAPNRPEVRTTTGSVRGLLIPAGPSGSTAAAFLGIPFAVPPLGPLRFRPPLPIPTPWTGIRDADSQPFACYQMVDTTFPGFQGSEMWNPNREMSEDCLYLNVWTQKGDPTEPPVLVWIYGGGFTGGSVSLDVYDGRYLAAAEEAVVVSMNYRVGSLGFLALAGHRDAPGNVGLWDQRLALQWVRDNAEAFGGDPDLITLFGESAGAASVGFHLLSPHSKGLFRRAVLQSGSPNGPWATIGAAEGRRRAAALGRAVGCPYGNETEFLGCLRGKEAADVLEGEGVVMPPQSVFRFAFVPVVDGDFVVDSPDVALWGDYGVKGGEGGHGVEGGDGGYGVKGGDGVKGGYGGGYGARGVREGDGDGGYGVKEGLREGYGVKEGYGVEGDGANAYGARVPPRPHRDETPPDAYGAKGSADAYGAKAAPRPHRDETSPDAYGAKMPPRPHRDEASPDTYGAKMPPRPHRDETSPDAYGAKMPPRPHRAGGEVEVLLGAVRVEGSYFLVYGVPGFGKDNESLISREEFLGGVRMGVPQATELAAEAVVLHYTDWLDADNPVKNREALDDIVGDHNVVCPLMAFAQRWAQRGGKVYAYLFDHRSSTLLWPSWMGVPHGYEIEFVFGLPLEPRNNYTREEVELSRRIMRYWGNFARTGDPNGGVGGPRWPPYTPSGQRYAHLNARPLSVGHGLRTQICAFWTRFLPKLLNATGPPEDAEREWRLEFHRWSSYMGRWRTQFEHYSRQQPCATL
Description: Whole brains were suspended in buffer (1 g of tissue plus 10 mL sodium phosphate 0.1 M, pH 7.5) and homogenized in an ice bath using an Ultra-Turrax homogenizer. The homogenate was then centrifuged (5,000g/30 min/5°C), and the soluble fraction was discarded. The pellet was then resuspended using the same volume of a 0.1 g% Triton X-100 in a 0.1 M sodium phosphate, pH 7.5, solution, and re-homogenized. After a second centrifugation (15,000g/90 min/5°C), the supernatant resulting from the pellet ressolubilization, or “solubilized AChE—AchEsol” [7], was collected, frozen, and stored at -20°C. All assays were conducted at most 72 hours after production of the supernatant fractions (AChEsol).
Brain AChE activity was assayed spectrophotometrically in 0.1 M sodium phosphate Triton X-100 0.1 g% pH 7.5 by a modification of Ellman’s method [18], as described by Silva Filho and colleagues [7]. The specificity of AChE for substrates (P%) was calculated by the ratio of AChE activity when using propionylthiocholine as substrate divided by AChE activity when using acetylthiocholine: P%, [(activity with ProScol/activity with AceScol) x 100] (%) [6].
Inhibition kinetic constants (IKC) were obtained using the methods described by Kemp and Wallace [9] and Carr and Chambers [19], and by the equations proposed by Kitz and Wilson [10] and Main [12]. […]

[8] = system: brain AChE; settings: read-out: IC50-30min; Rattus (rat) brain AChE; cited from earlier work
[9] = system: AChE; settings: read-out: IC50-30min; Piaractus mesopotamicus, freshwater fish; cited from earlier work
[10] = system: brain AChE; settings: read-out: IC50-30min; Gallus (chicken) brain AChE; cited from earlier work

In the case of COP(=O)(OC)Oc1ccc([N+](=O)[O-])cc1 [methyl-paraoxon, dimethyl-4-nitrophenyl-phosphate], the IC50 [1] is listed as 3.34 µM, the “kp: phosphorylation rate constant” value [2] is listed as 0.71 ± 0.1 min⁻¹ and the “ki: Bimolecular reaction constant” value ([2]; pH 7.5, 0.1 g% Triton X-100) is listed as 588 ± 26.7 M⁻¹ s⁻¹. For the same compound, the Kd ([2]; read-out: Kd: dissociation constant of enzyme-inhibitor complex (EI)) was 20.3 ± 2.95 µM, the IC50 [3] was 0.123 µM and the IC50 [4] was 0.455 µM. The “kp: phosphorylation rate constant” value ([5]; Lagocephalus laevigatus (puffer fish) brain AChE) was 0.55 ± 0.08 min⁻¹, the “ki: Bimolecular reaction constant” value ([5]; Lagocephalus laevigatus (puffer fish) brain AChE, pH 7.5, 0.1 g% Triton X-100) was 155 ± 12.7 M⁻¹ s⁻¹ and the Kd ([5]; Lagocephalus laevigatus (puffer fish) brain AChE, read-out: Kd: dissociation constant of enzyme-inhibitor complex (EI)) was 62.6 ± 14.7 µM. The IC50 ([5]; read-out: IC50: concentration that produced 50% inhibition of brain AChE activity in 30 min, Lagocephalus laevigatus (puffer fish), 30 min incubation, estimated using the ki) was 2.84 ± 0.145 µM, the “kp: phosphorylation rate constant” value ([6]; Mugil liza (mullet) brain AChE) was 1.64 ± 0.6 min⁻¹ and the “ki: Bimolecular reaction constant” value ([6]; Mugil liza (mullet) brain AChE, pH 7.5, 0.1 g% Triton X-100) was 179.5 ± 11.5 M⁻¹ s⁻¹. For the same compound, the Kd ([6]; Mugil liza (mullet) brain AChE, read-out: Kd: dissociation constant of enzyme-inhibitor complex (EI)) was 159 ± 59.6 µM, the “inhibition of AChE” value ([6]; 5μM of MP) was “less than 10%” and the “inhibition of AChE” value ([6]; 208μM of MP) was “higher than 90%”. The IC50 ([6]; read-out: IC50: concentration that produced 50% inhibition of brain AChE activity in 30 min, Mugil liza (mullet), 30 min incubation, estimated using the ki) was 2.88 ± 0.422 µM, the “kp: phosphorylation rate constant” value [7] was 0.47 ± 0.1 min⁻¹ and the “ki: Bimolecular reaction constant” value ([7]; pH 7.5, 0.1 g% Triton X-100) was 15010 ± 1090 M⁻¹ s⁻¹. The IC50 [8] was 0.029 µM, the IC50 [9] was 3.11 µM and the IC50 [10] was 0.037 µM.
